Laboratory results as given in patent US20080214518A1, “Pharmaceutical Composition Comprising an Anti-Bacterial Agent and an Active Ingredient Selected From Carveol, Thymol, Eugenol, Borneol and Carvacrol” (priority 2005, published 2008).
Converted amounts (≈) assume the structure as drawn. Read-outs that look alike come from different tables or passages of the source.

Key:
Type in all cases: cell-based
Klebsiella pneumoniae = assay: Static tests to determine MBC; details: carveol alone, Table 1
Experimental: (§1) The experiment was carried out with several Gram-negative and Gram-positive bacterial strains with different susceptibilities isolated in the hospital environment.
(§2) Antibacterial pharmaceutical compositions according to the invention were prepared by mixing amoxicillin at different concentrations with carveol at a sub-inhibitory concentration of 0.3 g per liter of solution or excipient (equivalent to 0.3 mg/ml). The minimal concentration of amoxicillin in combination with carveol 0.3 mg/ml that produced a bactericidal effect was determined. In each case, antibiotic activity was determined either with amoxicillin alone, or with carveol alone, or with the composition of the invention.

[1] = tested on: Staphylococcus epidermidis; assay: Static tests to determine MIC and MBC
Experimental: as §1
as §2, with “invention. […]” for “invention.”

Staphylococcus aureus = assay: Static tests to determine MIC and MBC; details: for MBC: carveol alone; for MIC: antibiotic alone
Experimental: as §1, §2
(§3) The experiment was carried out with several resistant bacterial strains isolated in the hospital environment. The antibiotic used was chlortetracycline, one of the oldest antibiotics. An antibiotic pharmaceutical composition according to the invention was prepared by mixing chlortetracycline at different concentrations with carveol at a sub-inhibitory concentration of 0.3 g per liter of solution or excipient. […] In each case, antibiotic activity was determined either with chlortetracycline alone, or with carveol alone, or with the composition of the invention.
as §3, with “streptomycin, an important member” for “chlortetracycline, one”, “aminoside family which is among the most important” for “oldest”, “streptomycin” for “chlortetracycline”
as §3, with “erythromycin, an important member” for “chlortetracycline, one”, “macrolide family which is among the most important” for “oldest”, “erythromycin” for “chlortetracycline”

Bacillus subtilis = assay: Static tests to determine MIC and MBC; details: for MIC: antibiotic alone
Experimental: as §1, §2
(§4) The experiment was carried out with several resistant bacterial strains isolated in the hospital environment. The antibiotic used was ampicillin, from the beta-lactam family, which is one of the most widely used antibiotics. An antibiotic pharmaceutical composition according to the invention was prepared by mixing ampicillin at different concentrations with carveol at a sub-inhibitory concentration of 0.3 g per liter of solution or excipient. This pharmaceutical composition of the invention was named Ampi-P, for potentiated ampicillin. In each case, antibiotic activity was determined either with ampicillin alone, or with carveol alone, or with the composition of the invention.
(§5) The experiment was carried out with several resistant bacterial strains isolated in the hospital environment. The antibiotic used was cephazolin, from the cephalosporin family, another class of beta-lactams which are among the most widely used antibiotics. An antibiotic pharmaceutical composition according to the invention was prepared by mixing cephazolin at different concentrations with alpha-ionone and beta-ionone at a sub-inhibitory concentration of 0.3 g per liter of solution or excipient. This pharmaceutical composition of the invention was named Cepha-P, for potentiated cephazolin. In each case, antibiotic activity was determined either with cephazolin alone, or with alpha-ionone or beta-ionone alone, or with the composition of the invention.
as §4, with “polymyxin B,” for “ampicillin,”, “peptide” for “beta-lactam”, “oldest” for “most widely used”, “polymyxin B” for “ampicillin”, “Polymix-P,” for “Ampi-P,”, “polymyxin B.” for “ampicillin.”
as §4, with “chloramphenicol,” for “ampicillin,”, “phenicol” for “beta-lactam”, “oldest” for “most widely used”, “chloramphenicol” for “ampicillin”, “Chloram-P,” for “Ampi-P,”, “chloramphenicol.” for “ampicillin.”
(§6) The experiment was carried out with several resistant bacterial strains isolated in the hospital environment. The antibiotic used was chlortetracycline, one of the oldest antibiotics. An antibiotic pharmaceutical composition according to the invention was prepared by mixing chlortetracycline at different concentrations with carveol at a sub-inhibitory concentration of 0.3 g per liter of solution or excipient.

Salmonella typhimurium = assay: Static tests to determine MIC and MBC; details: for MIC: antibiotic alone
Experimental: as §1, §2, §4, §5
as §4, with “polymyxin B,” for “ampicillin,”, “peptide” for “beta-lactam”, “oldest” for “most widely used”, “polymyxin B” for “ampicillin”, “Polymix-P,” for “Ampi-P,”, “polymyxin B.” for “ampicillin.”
as §4, with “chloramphenicol,” for “ampicillin,”, “phenicol” for “beta-lactam”, “oldest” for “most widely used”, “chloramphenicol” for “ampicillin”, “Chloram-P,” for “Ampi-P,”, “chloramphenicol.” for “ampicillin.”
as §6

Escherichia coli = assay: Static tests to determine MIC and MBC; details: for MIC: antibiotic alone
Experimental: as §1, §2, §4, §5
as §4, with “polymyxin B,” for “ampicillin,”, “peptide” for “beta-lactam”, “oldest” for “most widely used”, “polymyxin B” for “ampicillin”, “Polymix-P,” for “Ampi-P,”, “polymyxin B.” for “ampicillin.”
as §4, with “chloramphenicol,” for “ampicillin,”, “phenicol” for “beta-lactam”, “oldest” for “most widely used”, “chloramphenicol” for “ampicillin”, “Chloram-P,” for “Ampi-P,”, “chloramphenicol.” for “ampicillin.”
as §6

[2] = tested on: bacterial strains isolated in the hospital environment; assay: Static MIC/MBC tests, potentiation over all tested strains; details: antibiotic combined with carveol, alpha-ionone or beta-ionone at 0.3 mg/ml
Experimental: as §1, §2
The experiment was carried out with several resistant bacterial strains isolated in the hospital environment. The antibiotic used was ampicillin, from the beta-lactam family, which is one of the most widely used antibiotics. […] In each case, antibiotic activity was determined either with ampicillin alone, or with carveol alone, or with the composition of the invention.
The experiment was carried out with several resistant bacterial strains isolated in the hospital environment. […] In each case, antibiotic activity was determined either with cephazolin alone, or with alpha-ionone or beta-ionone alone, or with the composition of the invention.
The experiment was carried out with several resistant bacterial strains isolated in the hospital environment. […] This pharmaceutical composition of the invention was named Polymix-P, for potentiated polymyxin B. In each case, antibiotic activity was determined either with polymyxin B alone, or with carveol alone, or with the composition of the invention.
The experiment was carried out with several resistant bacterial strains isolated in the hospital environment. […] In each case, antibiotic activity was determined either with chloramphenicol alone, or with carveol alone, or with the composition of the invention. […]

Mycobacterium fortuitum = assay: Static tests to determine MIC and MBC; details: Mycolicibacterium fortuitum
Mycobacterium fleii = assay: Static tests to determine MIC and MBC
[3] = tested on: resistant mycobacterial strains isolated in a veterinary environment; assay: Static MIC/MBC tests, potentiation over tested mycobacterial strains; details: antibiotic combined with carvacrol or thymol at 0.3 mg/ml
[4] = first substance alone, exponential growth phase
[5] = Staphylococcus aureus, exponential growth phase
[6] = Bacillus subtilis, exponential growth phase, read-out: MIC
[7] = Salmonella enterica, TYPHIMURIUM, exponential growth phase, read-out: MIC
[8] = Escherichia coli, exponential growth phase, read-out: MIC
[9] = antibiotic alone, exponential growth phase

## C=C(C)C1CC=C(C)C(O)C1 (mixture of isomers) [Carveol, carveol]
Klebsiella pneumoniae
  MBC: 2000 µg/mL
[1]; Staphylococcus epidermidis, carveol alone, Table 1, read-out: MBC
  MBC: 2000 µg/mL
[1]; [4]
  MBC: 2000 µg/mL
Staphylococcus aureus; Staphylococcus aureus, Table 1, read-out: MBC
  MBC: 2000 µg/mL
Staphylococcus aureus; exponential growth phase
  MBC: 2000 µg/mL
Bacillus subtilis; Bacillus subtilis, carveol alone, Table 1, read-out: MBC
  MBC: 2000 µg/mL
Bacillus subtilis; [4]
  MBC: 2000 µg/mL
Salmonella typhimurium; Salmonella enterica, TYPHIMURIUM, carveol alone, Table 1, read-out: MBC
  MBC: 2000 µg/mL
Salmonella typhimurium; [4]
  MBC: 2000 µg/mL
Escherichia coli; Escherichia coli, carveol alone, Table 1, read-out: MBC
  MBC: 2000 µg/mL
Escherichia coli; [4]
  MBC: 2000 µg/mL

## CN(C)[C@@H]1C(O)=C(C(N)=O)C(=O)[C@@]2(O)C(O)=C3C(=O)c4c(O)ccc(Cl)c4[C@@](C)(O)[C@H]3C[C@@H]12 [Chlortetracycline, chlortetracycline]
Staphylococcus aureus; [5]
  MIC: > 50 µg/mL
Bacillus subtilis; [6]
  MIC: > 50 µg/mL
Salmonella typhimurium; [7]
  MIC: > 50 µg/mL
Escherichia coli; [8]
  MIC: > 50 µg/mL

## Cc1nnc(SCC2=C(C(=O)O)N3C(=O)[C@@H](NC(=O)Cn4cnnn4)[C@H]3SC2)s1 [Cephazolin, cephazolin]
[1]; [9]
  MIC: >50 µg/mL
[2]
  times lower antibiotic concentration producing bactericidal activity versus antibiotic alone: at least ten
Bacillus subtilis; exponential growth phase
  MIC: >50 µg/mL
Salmonella typhimurium; exponential growth phase
  MIC: >50 µg/mL
Escherichia coli; exponential growth phase
  MIC: >50 µg/mL

## Cc1ccc(C(C)C)cc1O [Carvacrol, carvacrol]
Mycobacterium fortuitum
  MBC: 1000 µg/mL (≈ 6.66 mM)
Mycobacterium fleii
  MBC: 1000 µg/mL (≈ 6.66 mM)

## [H]/N=C(/N)N[C@H]1[C@H](O)[C@@H](O)[C@H](O[C@@H]2O[C@@H](C)[C@](O)(C=O)[C@H]2O[C@@H]2O[C@@H](CO)[C@H](O)[C@@H](O)[C@@H]2NC)[C@@H](N/C(N)=N\[H])[C@@H]1O [Streptomycin, streptomycin]
Staphylococcus aureus; [5]
  MIC: > 50 µg/mL
[2]
  times lower antibiotic concentration producing bactericidal activity versus antibiotic alone: at least 10 times
Bacillus subtilis; [6]
  MIC: > 50 µg/mL
Salmonella typhimurium; [7]
  MIC: > 50 µg/mL
Escherichia coli; [8]
  MIC: > 50 µg/mL

## NNC(=O)c1ccncc1 [Isoniazide, isoniazide]
[3]
  times lower antibiotic concentration producing bactericidal activity versus antibiotic alone: at least 25 times
Mycobacterium fortuitum; [9]
  MIC: > 50 µg/mL
Mycobacterium fleii; [9]
  MIC: > 50 µg/mL

## CC[C@H]1OC(=O)[C@H](C)[C@@H](O[C@H]2C[C@@](C)(OC)[C@@H](O)[C@H](C)O2)[C@H](C)[C@@H](O[C@@H]2O[C@H](C)C[C@H](N(C)C)[C@H]2O)[C@](C)(O)C[C@@H](C)C(=O)[C@H](C)[C@@H](O)[C@]1(C)O [Erythromycin, erythromycin]
Staphylococcus aureus; [5]
  MIC: > 50 µg/mL
[2]
  times lower antibiotic concentration producing bactericidal activity versus antibiotic alone: two to five
Bacillus subtilis; [6]
  MIC: > 50 µg/mL
Salmonella typhimurium; [7]
  MIC: > 50 µg/mL
Escherichia coli; [8]
  MIC: > 50 µg/mL
